These results are taken from EP4104818A1, “OPHTHALMIC COMPOSITION COMPRISING XANTHOHUMOL” (Skeye Pharma GbR, priority 2021, dated 2022).

Broadly, the viability is a read-out of living cells in per cent, often relative to untreated cells.

The subject of assay [1] is human corneal epithelial cells. The assay is described as follows: cells. The following applies: Corneal epithelial cell, 24 h, read-out: cell viability. The assay is classed as cell-based. How it is done: Human corneal epithelial cells (hCEC; SCCE016; Merck Millipore, Burlington, MA, USA) were cultured in corneal epithelial cell growth medium with supplement mix (LGC Standards, Teddington, United Kingdom). Approximately 10,000 hCECs were seeded onto each well of a 96-well cell-culture dishes (NUNC, Langenselbold, Germany). Confluent cells were used for Water-soluble tetrazolium salt (WST-1) cell proliferation assays (Hoffmann-La Roche AG, Basel, Switzerland). After 24 hours of incubation with 100 µl of corneal epithelial cell growth medium without its supplement mix (LGC Standards, Teddington, United Kingdom), hCECs were treated with different concentrations of xanthohumol (XH; Selleckchem, Houston, TX, USA) dissolved in dimethyl sulfoxide (DMSO; Carl Roth AG, Karlsruhe, Germany). Control groups were treated with DMSO only. Following another 72 hours of incubation, the cells were incubated with the WST-1 solution for 30 minutes. Substrate turnover was measured with an ELISA reader at 450 nm (Spectramax 190; Molecular Devices, Sunnyvale, CA, USA) and a reference at 690 nm. To determine potential anti-oxidative effects of xanthohumol, hCECs were incubated and treated analogous to the above-mentioned WST-1 cell proliferation assay with minor modifications. […] Following another incubation of the hCECs for 24 hours, the WST-1 assay was further finalized according to the description above.

Assay [2] concerns Intracellular, mitochondrial reactive oxygen species (ROS). The assay is described as follows: Dihydrorhodamine-123 (DHR-123) assay of intracellular ROS. The assay is classed as cell-based. The note with it: Homo sapiens, HCEC, 2 hours. How it is done: Intracellular, mitochondrial reactive oxygen species (ROS) were assessed using the cell membrane permeable dihydrorhodamine-123 (DHR-123) assay (D23806; ThermoFisher Scientific, Waltham, MA, USA) according to the manufacturer's instructions. Measurements were made after exposing human corneal epithelial cells to H2O2, xanthohumol or DMSO only for 2 hours. For ROS staining, cells were incubated with 10 µM DHR-123 for 15 minutes. Nucleus staining was performed using Hoechst 33342 nucleic acid stain (H1399; ThermoFisher Scientific, Waltham, MA, USA). Randomly, a minimum of 3 images of every treatment group were acquired with a 20x fluorescence objective using the aforementioned Axio Observer 7. Results were expressed in percent of fluorescence intensity relative to the baseline measurement in the DMSO control group. For quantification of the fluorescence signals, the microscope software ZEN 3.0 (Carl Zeiss AG, Jena, Germany) was used.

The test system of assay [3] is hCEC. Description: BrdU cell proliferation ELISA. The assay is classed as cell-based. The note with it: Homo sapiens, 24 hours, hCECs, no significant change. On the procedure:
Proliferation of hCEC was determined using a 5-bromo-2'-deoxyuridine (BrdU) ELISA in accordance with the manufacturers' recommendations (Merck KGaA, Darmstadt, Germany). In brief, approximately 7,000 cells were seeded onto a 96-well cell culture plat e and incubated for 24h to achieve complete adherence of the cells. After 24 hours of incubation with 100 µl of corneal epithelial cell growth medium without its' supplement mix, hCECs were treated with xanthohumol dissolved in DMSO. Following another 24 hours of incubation with BrdU labeling solution, cells were fixed and incubated with anti-BrdU antibodies according to the manufacturer's recommendations. BrdU incorporation into the DNA of hCECs was quantified by absorbance measurement at 450 nm.
(In general: In an ELISA, binding on a coated surface is turned into a signal by an enzyme label.)

For assay [4], the system named is Human corneal epithelial cells (hCEC). The assay is described as follows: WST-1 cell viability assay. The assay is classed as cell-based. The following applies: 72 hours of incubation, hCECs, compared to the DMSO-treated control group. How it is done: Human corneal epithelial cells (hCEC; SCCE016; Merck Millipore, Burlington, MA, USA) were cultured in corneal epithelial cell growth medium with supplement mix (LGC Standards, Teddington, United Kingdom). Approximately 10,000 hCECs were seeded onto each well of a 96-well cell-culture dishes (NUNC, Langenselbold, Germany). Confluent cells were used for Water-soluble tetrazolium salt (WST-1) cell proliferation assays (Hoffmann-La Roche AG, Basel, Switzerland). After 24 hours of incubation with 100 µl of corneal epithelial cell growth medium without its supplement mix (LGC Standards, Teddington, United Kingdom), hCECs were treated with different concentrations of xanthohumol (XH; Selleckchem, Houston, TX, USA) dissolved in dimethyl sulfoxide (DMSO; Carl Roth AG, Karlsruhe, Germany). Control groups were treated with DMSO only. Following another 72 hours of incubation, the cells were incubated with the WST-1 solution for 30 minutes. Substrate turnover was measured with an ELISA reader at 450 nm (Spectramax 190; Molecular Devices, Sunnyvale, CA, USA) and a reference at 690 nm.
(In general: Tetrazolium assays rely on reduction of a dye to a coloured formazan, in cell work by metabolically active cells.)

In assay [5] the test system is hCEC. Description: Cell scratch assay (hCEC migration / wound healing in vitro). The assay is classed as cell-based, Human. On the procedure:
To analyze hCEC migration in vitro, cells were cultured in corneal epithelial cell growth medium with supplement mix until confluence of the cells of a 6-well cell culture plate. Following an incubation period of 24 hours in cell culture medium without supplements, 5 linear scratches were performed in each well using a 200 µl pipette tip (Eppendorf AG, Hamburg, Germany). The hCECs were then incubated prospectively under treatment with xanthohumol or DMSO as a control for up to 72 hours. Reference images were acquired at the beginning of the incubation period using the phase contrast mode on an Axio Observer 7 (Carl Zeiss AG, Jena, Germany). Every 24 hours, follow-up images of 4-5 different scratch sections were acquired. The size of the wound area was analyzed using a semi-automated analysis tool in ImageJ 1.53a (National Institute of Health, Bethesda, MD, USA).

A further assay has as its system bovine corneas. The assay is described as follows: Corneal erosion assay on bovine corneas ex vivo. The following applies: up to 72 hours, every 12 hours, compared to the DMSO-treated control group. On the procedure:
Furthermore, corneal epithelial cell wound healing was determined on bovine corneas ex vivo. Bovine globes were obtained from a local butchery following approval by the authority for waste management of animal carcasses (ID: DE 09 162 0066-219) and processed within 12 hours post-mortem. The bovine globes were washed in 10% w/v povidone-iodine for 5 minutes. A circular corneal epithelial erosion was created using an 8 mm trephine and a hockey knife (Katena Products Inc., Parsippany, NJ, USA). Subsequently, a sclerocorneal ring was excised with eye scissors (Katena Products Inc., Parsippany, NJ, USA) and transferred to a 60 mm cell culture plate. To acquire reference images of the corneal erosion, the wound area was stained with a 0.8 mg/ml fluorescein sodium solution and illuminated with blue light (approximate wavelength 490 nm). Images were acquired using a distance-fixed digital single lens reflex camera equipped with a macro lens (Canon Inc., Tokyo, Japan). Consequently, the sclerocorneal rings were incubated in Dulbecco's Modified Eagle's Medium (Bio&SELL GmbH, Feucht, Germany) supplemented with 50 IU penicillin/ml and 50 µg streptomycin/ml (Merck Millipore, Burlington, MA, USA) and xanthohumol or DMSO only. Follow-up images were acquired every 12 hours, the cell culture medium was renewed daily.

Take `OO` [H2O2, hydrogen peroxide, reference compound]: the viability at 100 µM in assay [1] was found to be 79 ± 14%. Also, the activity at 100 µM in assay [2] (H2O2 100 µM only, compared to the control group, read-out: DHE-123 fluorescence) stood at 149 ± 9%.
For the molecule `COc1cc(O)c(CC=C(C)C)c(O)c1C(=O)/C=C/c1ccc(O)cc1` [xanthohumol, 1-[2,4-Dihydroxy-6-methoxy-3-(3-methyl-but-2-enyl)-phenyl]-3-(4-hydroxyphenyl)-propenon], the values for the viability at 1 µM in assay [1] and in assay [4] (1 µM) were 91 ± 11% and 144 ± 26%, respectively. In addition, the viability at 2.5 µM came out at 96 ± 4% in assay [1] and 127 ± 11% in assay [4] (2.5 µM). Further, the activity at 1 µM in assay [2] (1 µM xanthohumol with H2O2 100 µM, relative to the DMSO control group, read-out: DHR-123 fluorescence) was 97 ± 16%; with hCEC [3] (1 µM), 112 ± 26%. In addition, the activity at 2.5 µM in assay [2] (2.5 µM xanthohumol with H2O2 100 µM, relative to the DMSO control group, read-out: DHR-123 fluorescence) came to 95 ± 26%; with hCEC [3] (2.5 µM) it was 107 ± 16%. Moreover, the activity at 5 µM in the assay with hCEC [3] (5 µM) is 95 ± 8%. In addition, the viability at 5 µM in assay [4] (5 µM, not significant) turned out to be 121 ± 24%. Further, the wound area with hCEC [5] (1 µM, 72 hours of incubation, control group 73 ± 9%) was 63 ± 14%; with hCEC [5] (2.5 µM, 72 hours of incubation, control group 73 ± 9%), 58 ± 18%; in the assay with hCEC [5] (2.5 µM, after 48 hours, control group 76 ± 7%), 66 ± 11%. Further, the speed of re-epithelialization entry with bovine corneas (1 µM) and in the assay on bovine corneas (2.5 µM) was “did not show any significant difference” in each case.
